Test results published in patent US4252956A, “Derivatives of 1,4-dihydropyridine-3-carbothiol acids” (priority 1979, dated 1981).
Like-named read-outs stand apart in the source and are kept apart here.

Tests used:
coronary blood flow = assay: recording the volume rate of coronary blood flow in experiments on narcotized cats (coronarodilating activity); assay type: in vivo; conditions: for ED (30-50%): Felis catus, iv, read-out: Dose increasing the coronary blood flow by 30-50%; for Duration of the effect: Table, at the dose increasing the coronary blood flow; for coronarodilating activity: narcotized cats
Method: (§1) Tests of the compounds according to the present invention were performed in comparison with the prior art coronarodilating agents; carbocromene and ditrimine and with the prior art spasmolytic preparation-papaverine having a myotropic effect.

arterial pressure = assay: hypotensive effect (arterial pressure, heart activity); assay type: in vivo; conditions: for ED30: read-out: ED30 of the hypotensive effect
Method: as §1

white mice = assay: in vivo
in vivo = conditions: mouse, in vivo, ip; white mice, intraperitoneal; read-out: LD50 for white mice upon intraperitoneal administration
[1] = tested on: coronarodilating activity; conditions: in vivo; cited from earlier work
[2] = increase of coronary blood flow by 30-50%

Compound: COc1cc(C(=O)OCCCN(C)CCN(C)CCCOC(=O)c2cc(OC)c(OC)c(OC)c2)cc(OC)c1OC [Ditrimine, reference compound]
- Dose increasing the coronary blood flow by 30-50% (coronary blood flow; [2]): 0.5 mg/kg
- ED30 of the hypotensive effect (arterial pressure; in vivo): 1.0 mg/kg
- LD50 for white mice upon intraperitoneal administration (white mice): 180 (149-218) mg/kg

Compound: CCSC(=O)C1=C(C)NC(C)=C(C(=O)SCC)C1c1cccnc1 [II, Di-S-ethyl ester of 2,6-dimethyl-4-m-pyridyl-1,4-dihydropyridine-3,5-dicarbothiol acid]
- ED (30-50%) (coronary blood flow; [2]): 0.5 mg/kg
- Duration of the effect (coronary blood flow): > 120 min
- coronarodilating activity (coronary blood flow): most active
- ED30 (arterial pressure): 0.56 mg/kg

Compound: COc1ccc(Cc2nccc3cc(OC)c(OC)cc23)cc1OC [Papaverine, reference compound]
- ED (30-50%) (coronary blood flow): 1 mg/kg
- Duration of the effect (coronary blood flow): 10 to 20 min
- ED30 (arterial pressure): 0.27 mg/kg
- LD50 (in vivo): 91 mg/kg

Compound: CCOC(=O)COc1ccc2c(C)c(CCN(CC)CC)c(=O)oc2c1 [Carbocromene, reference compound]
- ED (30-50%) (coronary blood flow; [2]): 0.5 mg/kg

Compound: CC1=C(C(=O)SCc2ccccc2)C(c2ccccc2O)C2=C(N1)c1ccccc1C2=O (centres unmarked) [VII, 2-methyl-3-benzylthiocarbonyl-4-o-hydroxyphenyl-5-oxo-1,4-dihydroindeno-(1,2-b)-pyridine]
- ED (30-50%) (coronary blood flow): 0.5 mg/kg
- coronarodilating activity (coronary blood flow): most active
- ED30 (arterial pressure): 1 mg/kg

Compound: CCSC(=O)C1=C(C)NC2=C(C(=O)c3ccccc32)C1c1ccccc1[N+](=O)[O-] (centres unmarked) [X, 2-methyl-3-ethylthiocarbonyl-4-o-nitrophenyl-5-oxo-1,4-dihydroindeno-(1,2-b)-pyridine]
- ED (30-50%) (coronary blood flow; [2]): 3 mg/kg
- LD50 (in vivo): > 2000 mg/kg

Compound: CCOC(=O)C1=C(C)NC(C)=C(C(=O)SCc2ccccc2)C1c1ccccc1 (centres unmarked) [III, 3-S-benzyl-5-ethyl ester of 4-phenyl-2,6-dimethyl-1,4-dihydropyridine-3-carbothiol-5-carboxylic acid]
- ED (30-50%) (coronary blood flow; [2]): 0.5 mg/kg
- Duration of the effect (coronary blood flow): 150 min
- coronarodilating activity (coronary blood flow): most active
- ED30 (arterial pressure): 1.65 mg/kg

Compound: CC1=C(C(=O)SCc2ccccc2)C(c2ccccc2)C2=C(N1)c1ccccc1C2=O (centres unmarked) [VI, 2-methyl-3-benzylthiocarbonyl-4-phenyl-5-oxo-1,4-dihydroindeno-(1,2-b)-pyridine]
- ED (30-50%) (coronary blood flow): 0.3 mg/kg
- coronarodilating activity (coronary blood flow): most active
- ED30 (arterial pressure): 1 mg/kg

Compound: CCSC(=O)C1=C(C)NC2=C(C(=O)c3ccccc32)C1c1ccc([N+](=O)[O-])cc1 (centres unmarked) [IX, 2-methyl-3-ethyl-thiocarbonyl-4-p-nitrophenyl-5-oxo-1,4-dihydroindeno-(1,2-b)-pyridine]
- ED (30-50%) (coronary blood flow; [2]): 3 mg/kg
- ED30 (arterial pressure): 1 mg/kg

Compound: CCSC(=O)C1=C(C)NC2=C(C(=O)c3ccccc32)C1c1ccccc1O (centres unmarked) [VIII, 2-methyl-3-ethylthiocarbonyl-4-o-hydroxyphenyl-5-oxo-1,4-dihydroindeno-(1,2-b)pyridine]
- ED (30-50%) (coronary blood flow; [2]): 3 mg/kg
- ED30 (arterial pressure): 5 mg/kg

Compound: CCSC(=O)C1=C(C)NC2=C(C(=O)c3ccccc32)C1c1ccccc1 (centres unmarked) [V, 2-methyl-3-ethylthiocarbonyl-4-phenyl-5-oxo-1,4-dihydroindeno-(1,2-b)-pyridine]
- ED (30-50%) (coronary blood flow; [2]): 3 mg/kg
- ED30 (arterial pressure): 3 mg/kg

Compound: CCOC(=O)C1=C(C)NC(C)=C(C(=O)SCc2ccccc2)C1C (centres unmarked) [IV, 3-S-benzyl-5-ethyl ester of 2,4,6-trimethyl-1,4-dihydropyridine-3-carbothiol-5-carboxylic acid]
- ED (30-50%) (coronary blood flow; [2]): 2 to 4 mg/kg
- Duration of the effect (coronary blood flow): 30 to 60 min
- ED30 (arterial pressure): 3.45 mg/kg

Compound: CCSC(=O)C1=C(C)NC(C)=C(C(=O)SCC)C1 [I, Di-S-ethyl ester of 2,6-dimethyl-1,4-dihydropyridine-3,5-dicarbothiol acid]
- ED (30-50%) (coronary blood flow; [2]): 1 mg/kg
- Duration of the effect (coronary blood flow): 60 to 90 min
- ED30 (arterial pressure): 1.8 mg/kg
- LD50 (in vivo): > 4000 mg/kg

Compound: COC(=O)C1=C(C)NC(C)=C(C(=O)OC)C1c1ccccc1[N+](=O)[O-] [2,6-dimethyl-3,5-dicarbometh-oxy-4-o-nitrophenyl-1,4-dihydropyridine]
- coronarodilating activity (prior art) [1]: pronounced coronarodilating activity
